In patent US10501461B2, “Tyrosine amide derivatives as Rho-kinase inhibitors” (CHIESI FARMACEUTICI S.P.A., priority 2017, dated 2019):
pKi: −log10 of the molar value.

Tests used:
Rho kinase 1 (ROCK-I) = Rho kinase 1 (ROCK-I) (Homo sapiens, UniProt Q13464); assay: In vitro Rho kinase inhibitory activity assay (ADP-Glo), Rho kinase 1; assay type: biochemical; details: 10 μM ATP, 25° C., expressed as range of activity
Outline: (§1)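 Human ROCK1 or ROCK2 was preincubated with compound for 30 min at 25 °C in 40 mM Tris pH7.5, 20 mM MgCl2, 0.1 mg/ml BSA, 50 μM DTT, 2.5 μM Myelin Basic Protein, 1% DMSO final. Reactions ran 1 hour with 10 μM ATP final; ADP-Glo luminescence gave IC50 by sigmoidal fit, Ki by Cheng-Prusoff.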

Rho kinase 2 (ROCK-II) = Rho kinase 2 (ROCK-II) (Homo sapiens, UniProt O75116); assay: In vitro Rho kinase inhibitory activity assay (ADP-Glo), Rho kinase 2; assay type: biochemical; details: 10 μM ATP, 25° C., expressed as range of activity
Outline: as §1

Rho kinase 1 (ROCK-I), sequence (Q13464 whole entry): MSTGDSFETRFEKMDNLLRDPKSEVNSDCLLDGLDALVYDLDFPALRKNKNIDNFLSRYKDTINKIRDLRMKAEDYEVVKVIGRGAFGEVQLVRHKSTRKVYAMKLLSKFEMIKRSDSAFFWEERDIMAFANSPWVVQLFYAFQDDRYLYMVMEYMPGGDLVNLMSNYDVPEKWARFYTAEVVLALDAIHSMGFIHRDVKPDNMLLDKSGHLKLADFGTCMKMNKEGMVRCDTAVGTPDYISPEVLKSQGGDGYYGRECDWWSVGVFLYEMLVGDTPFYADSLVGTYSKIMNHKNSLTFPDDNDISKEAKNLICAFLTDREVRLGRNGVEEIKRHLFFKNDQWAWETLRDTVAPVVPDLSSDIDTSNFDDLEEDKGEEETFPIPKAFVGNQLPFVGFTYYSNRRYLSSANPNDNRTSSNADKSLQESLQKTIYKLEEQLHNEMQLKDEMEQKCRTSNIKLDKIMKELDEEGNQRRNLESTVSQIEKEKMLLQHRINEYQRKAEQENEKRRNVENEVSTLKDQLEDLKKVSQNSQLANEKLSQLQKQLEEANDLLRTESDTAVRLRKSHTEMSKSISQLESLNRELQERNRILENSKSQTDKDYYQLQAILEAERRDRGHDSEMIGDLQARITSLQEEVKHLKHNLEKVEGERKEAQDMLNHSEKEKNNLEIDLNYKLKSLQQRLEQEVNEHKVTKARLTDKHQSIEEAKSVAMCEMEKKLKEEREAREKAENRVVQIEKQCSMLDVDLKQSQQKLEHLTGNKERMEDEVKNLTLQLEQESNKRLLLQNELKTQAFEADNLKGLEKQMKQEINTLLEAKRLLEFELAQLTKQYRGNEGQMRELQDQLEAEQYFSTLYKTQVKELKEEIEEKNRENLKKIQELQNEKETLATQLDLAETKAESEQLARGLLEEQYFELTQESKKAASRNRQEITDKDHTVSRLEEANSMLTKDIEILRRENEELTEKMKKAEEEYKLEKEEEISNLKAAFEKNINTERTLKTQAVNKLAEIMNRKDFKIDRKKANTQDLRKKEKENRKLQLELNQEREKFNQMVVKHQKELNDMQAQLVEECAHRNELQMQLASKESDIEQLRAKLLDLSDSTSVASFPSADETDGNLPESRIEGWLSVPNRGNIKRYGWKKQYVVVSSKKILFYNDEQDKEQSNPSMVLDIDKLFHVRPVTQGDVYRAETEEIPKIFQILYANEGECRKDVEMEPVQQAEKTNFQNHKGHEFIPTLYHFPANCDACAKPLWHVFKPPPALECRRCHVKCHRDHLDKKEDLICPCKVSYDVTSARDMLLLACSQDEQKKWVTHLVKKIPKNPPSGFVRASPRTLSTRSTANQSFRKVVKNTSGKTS
Rho kinase 2 (ROCK-II), sequence (O75116 whole entry): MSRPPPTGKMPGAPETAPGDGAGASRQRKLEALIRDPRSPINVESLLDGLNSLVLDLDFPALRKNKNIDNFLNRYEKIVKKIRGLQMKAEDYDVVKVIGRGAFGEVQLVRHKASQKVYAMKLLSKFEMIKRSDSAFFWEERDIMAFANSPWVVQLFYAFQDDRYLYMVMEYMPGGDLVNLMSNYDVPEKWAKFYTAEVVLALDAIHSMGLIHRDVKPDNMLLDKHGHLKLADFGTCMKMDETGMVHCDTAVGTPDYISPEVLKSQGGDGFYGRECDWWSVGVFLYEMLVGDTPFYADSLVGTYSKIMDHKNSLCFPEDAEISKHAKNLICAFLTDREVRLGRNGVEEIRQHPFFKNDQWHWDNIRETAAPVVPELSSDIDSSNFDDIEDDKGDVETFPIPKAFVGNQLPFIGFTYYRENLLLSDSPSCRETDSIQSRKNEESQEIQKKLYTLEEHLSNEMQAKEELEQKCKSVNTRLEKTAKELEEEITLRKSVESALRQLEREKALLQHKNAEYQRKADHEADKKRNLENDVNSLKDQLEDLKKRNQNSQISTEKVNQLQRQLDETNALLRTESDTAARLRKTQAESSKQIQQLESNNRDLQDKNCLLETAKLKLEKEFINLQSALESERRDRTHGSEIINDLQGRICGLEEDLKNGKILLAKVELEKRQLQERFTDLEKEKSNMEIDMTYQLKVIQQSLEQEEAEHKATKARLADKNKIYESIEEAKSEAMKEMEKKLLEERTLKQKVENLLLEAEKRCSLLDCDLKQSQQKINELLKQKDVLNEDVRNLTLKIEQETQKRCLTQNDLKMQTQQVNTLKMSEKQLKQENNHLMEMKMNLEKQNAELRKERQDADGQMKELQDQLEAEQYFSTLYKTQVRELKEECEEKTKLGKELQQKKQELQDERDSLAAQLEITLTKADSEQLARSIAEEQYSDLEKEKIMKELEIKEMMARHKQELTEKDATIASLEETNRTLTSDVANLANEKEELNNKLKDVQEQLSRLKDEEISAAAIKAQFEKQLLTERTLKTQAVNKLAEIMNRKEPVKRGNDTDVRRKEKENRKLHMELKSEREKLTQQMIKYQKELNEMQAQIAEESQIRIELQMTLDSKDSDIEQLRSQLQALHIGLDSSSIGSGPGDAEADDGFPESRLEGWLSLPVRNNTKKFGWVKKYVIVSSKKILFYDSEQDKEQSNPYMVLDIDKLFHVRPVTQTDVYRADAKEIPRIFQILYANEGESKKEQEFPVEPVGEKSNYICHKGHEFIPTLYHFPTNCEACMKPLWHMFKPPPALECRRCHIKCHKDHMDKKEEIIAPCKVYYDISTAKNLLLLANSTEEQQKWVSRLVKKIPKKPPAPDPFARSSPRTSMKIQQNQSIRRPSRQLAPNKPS

Row | Structure (SMILES) | pKi (Rho kinase 1 (ROCK-I)) | pKi (Rho kinase 2 (ROCK-II))
1 | N[C@@H](Cc1ccc(Oc2ccnc3[nH]cc(C4CC4)c23)cc1)C(=O)NC1CCCCC1 [Example 203, (S)-2-amino-N-cyclohexyl-3-(4-((3-cyclopropyl-1H-pyrrolo[2,3-b]pyridin-4-yl)oxy)phenyl)propanamide] | > 8.52 | > 8.52
2 | N[C@@H](Cc1ccc(Oc2ccnc3[nH]cc(Cl)c23)cc1)C(=O)NC1CCCCC1 [Example 191, (S)-2-amino-3-(4-((3-chloro-1H-pyrrolo[2,3-b]pyridin-4-yl)oxy)phenyl)-N-cyclohexylpropanamide] | > 8.52 | > 8.52
3 | CCn1nccc1-c1c[nH]c2nccc(Oc3ccc(C[C@H](N)C(=O)N4CCN(Cc5ccccc5)CC4)cc3)c12 [Example 193, (S)-2-amino-1-(4-benzylpiperazin-1-yl)-3-(4-((3-(1-ethyl-1H-pyrazol-5-yl)-1H-pyrrolo[2,3-b]pyridin-4-yl)oxy)phenyl)propan-1-one] | 7.52 to 8.52 | 7.52 to 8.52
4 | N[C@@H](Cc1ccc(Oc2ncnc3[nH]ccc23)cc1)C(=O)N1CCN(Cc2ccccc2)CC1 [Example 226, (S)-3-(4-((7H-pyrrolo[2,3-d]pyrimidin-4-yl)oxy)phenyl)-2-amino-1-(4-benzylpiperazin-1-yl)propan-1-one] | 7.52 to 8.52 | 7.52 to 8.52
5 | N[C@@H](Cc1ccc(Oc2ccnc3[nH]cc(-c4cnoc4)c23)cc1)C(=O)N1CCN(Cc2ccccc2)CC1 [Example 198, (S)-2-amino-1-(4-benzylpiperazin-1-yl)-3-(4-((3-(isoxazol-4-yl)-1H-pyrrolo[2,3-b]pyridin-4-yl)oxy)phenyl)propan-1-one] | > 8.52 | > 8.52
6 | N#Cc1c[nH]c2ncnc(Oc3ccc(C[C@H](N)C(=O)N4CCN(Cc5ccccc5)CC4)cc3F)c12 [Example 130, (S)-4-(4-(2-amino-3-(4-benzylpiperazin-1-yl)-3-oxopropyl)-2-fluorophenoxy)-7H-pyrrolo[2,3-d]pyrimidine-5-carbonitrile] | > 8.52 | > 8.52
7 | CN(C(=O)[C@@H](N)Cc1ccc(Oc2ccnc3[nH]ccc23)cc1)C1CCCCC1 [Example 101, (S)-3-(4-((1H-pyrrolo[2,3-b]pyridin-4-yl)oxy)phenyl)-2-amino-N-cyclohexyl-N-methylpropanamide] | 7.52 to 8.52 | 7.52 to 8.52
8 | N[C@@H](Cc1ccc(Oc2ccnc3[nH]ccc23)cc1)C(=O)NCc1ccccc1 [Example 97, (S)-3-(4-((1H-pyrrolo[2,3-b]pyridin-4-yl)oxy)phenyl)-2-amino-N-benzylpropanamide] | 7.52 to 8.52 | 7.52 to 8.52
9 | Cc1c[nH]c2nccc(Oc3ccc(C[C@H](N)C(=O)N4CCN(C(=O)c5cnn(C)c5)CC4)cc3F)c12 [Example 175, (S)-2-amino-3-(3-fluoro-4-((3-methyl-1H-pyrrolo[2,3-b]pyridin-4-yl)oxy)phenyl)-1-(4-(1-methyl-1H-pyrazole-4-carbonyl)piperazin-1-yl)propan-1-one] | > 8.52 | > 8.52

Other lines, results leading:

Row | pKi (Rho kinase 1 (ROCK-I)) | pKi (Rho kinase 2 (ROCK-II)) | Structure (SMILES)
10 | 7.52 to 8.52 | 7.52 to 8.52 | Cc1c[nH]c2nccc(Oc3ccc(C[C@H](N)C(=O)N4CC5(CN(C)C5)C4)cc3F)c12 [Example 3, (S)-2-amino-3-(3-fluoro-4-((3-methyl-1H-pyrrolo[2,3-b]pyridin-4-yl)oxy)phenyl)-1-(6-methyl-2,6-diazaspiro[3.3]heptan-2-yl)propan-1-one]
11 | 7.52 to 8.52 | > 8.52 | Cc1c[nH]c2nccc(Oc3ccc(C[C@H](N)C(=O)N(C)C4CCN(C)CC4)cc3F)c12 [Example 44, (S)-2-amino-3-(3-fluoro-4-((3-methyl-1H-pyrrolo[2,3-b]pyridin-4-yl)oxy)phenyl)-N-methyl-N-(1-methylpiperidin-4-yl)propanamide]
12 | 7.52 to 8.52 | 7.52 to 8.52 | Cc1c[nH]c2nccc(Oc3ccc(C[C@@H](N)C(=O)NC4CCOCC4)cc3F)c12 [Example 55, (R)-2-amino-3-(3-fluoro-4-((3-methyl-1H-pyrrolo[2,3-b]pyridin-4-yl)oxy)phenyl)-N-(tetrahydro-2H-pyran-4-yl)propanamide]
13 | > 8.52 | > 8.52 | Cc1c[nH]c2nccc(Oc3ccc(C[C@@H](N)C(=O)Nc4ccccc4)cc3F)c12 [Example 149, (R)-2-amino-3-(3-fluoro-4-((3-methyl-1H-pyrrolo[2,3-b]pyridin-4-yl)oxy)phenyl)-N-phenylpropanamide]
14 | > 8.52 | > 8.52 | Cc1c[nH]c2nccc(Oc3ccc(C[C@H](N)C(=O)NC4CCCCC4)cc3)c12 [Example 141, (S)-2-amino-N-cyclohexyl-3-(4-((3-methyl-1H-pyrrolo[2,3-b]pyridin-4-yl)oxy)phenyl)propanamide]
15 | > 8.52 | > 8.52 | Cc1c[nH]c2nccc(Oc3ccc(CC(N)C(=O)NCCc4ccncc4)cc3F)c12 (single isomer, unassigned) [Example 57B, 2-amino-3-(3-fluoro-4-((3-methyl-1H-pyrrolo[2,3-b]pyridin-4-yl)oxy)phenyl)-N-(2-(pyridin-4-yl)ethyl)propanamide]
16 | 7.52 to 8.52 | 7.52 to 8.52 | Cc1c[nH]c2nccc(Oc3ccc(C[C@H](N)C(=O)N(C)CC4CCN(C)CC4)cc3F)c12 [Example 39, (S)-2-amino-3-(3-fluoro-4-((3-methyl-1H-pyrrolo[2,3-b]pyridin-4-yl)oxy)phenyl)-N-methyl-N-((1-methylpiperidin-4-yl)methyl)propanamide]
17 | > 8.52 | > 8.52 | CN1CCC(NC(=O)[C@@H](N)Cc2ccc(Oc3ccnc4[nH]cc(-c5ccccc5)c34)c(F)c2)CC1 [Example 204, (S)-2-amino-3-(3-fluoro-4-((3-phenyl-1H-pyrrolo[2,3-b]pyridin-4-yl)oxy)phenyl)-N-(1-methylpiperidin-4-yl)propanamide]
18 | > 8.52 | > 8.52 | Cc1c[nH]c2ncnc(Oc3ccc(C[C@H](N)C(=O)N4CCN(Cc5ccccc5)CC4)cc3F)c12 [Example 115, (S)-2-amino-1-(4-benzylpiperazin-1-yl)-3-(3-fluoro-4-((5-methyl-7H-pyrrolo[2,3-d]pyrimidin-4-yl)oxy)phenyl)propan-1-one]
19 | > 8.52 | > 8.52 | Cc1c[nH]c2nccc(Oc3ccc(C[C@H](N)C(=O)NC4CCOCC4)cc3)c12 [Example 90, (S)-2-amino-3-(4-((3-methyl-1H-pyrrolo[2,3-b]pyridin-4-yl)oxy)phenyl)-N-(tetrahydro-2H-pyran-4-yl)propanamide]
